Test [1] deals with Hs578T cells. Nature of the test: MTS viable cell assay in Hs578T TNBC cell line. The test is classed as cell-based. As to conditions: RD162′ 10 μM, DHT 10 nM, 9 days, FIG. 8. On the procedure:
Viable cells were assayed by MTS assay. Averages of the triplicate data points are shown with standard deviation. ***p<0.001 (two-tail t-test).
On the technique in general: Tetrazolium dyes change colour on reduction, which living cells bring about.

Test [2] deals with MDA468 cells. Nature of the test: MTT assay in triple negative breast cancer cell line MDA468. It counts as cell-based. Particulars: 10 μM RD162′, FIG. 6C.
Test [3] relates to BCK4 cells. The test can be described thus: Proliferation assay, DHT-mediated growth in BCK4 cells. It counts as cell-based. Particulars: RD162′ and DHT; FIG. 2.
Test [4] has as its system androgen-dependent luciferase reporter in MDA-kb2 cells. The test can be described thus: Luciferase assay in MDA-kb2 cells with androgen-dependent luciferase reporter. It counts as cell-based. As to conditions: FIG. 7B.
Test [5] deals with MCF7 cells. The test can be described thus: MTT in vitro proliferation assay, DHT-mediated growth in MCF7 cells. The test is classed as cell-based. As to conditions: 10 μM RD162′ with 10 nM DHT; MTT at various time points; FIG. 1.
The test system of test [6] is MCF7-TGL cells. The test can be described thus: Estrogen stimulated MCF7-TGL orthotopic tumors in ovariectomized nude mice. Particulars: for BrdU staining of tumor sections, P vs E2 group: BrdU two hours prior to sacrifice, ANOVA with Bonferroni correction, FIG. 11D. It counts as in vivo. On the procedure: MCF7-TGL cells stably expressing luciferase were implanted orthotopically in the mammary gland of ovariectomized female nude mice. […] The beginning of treatment is indicated by an arrow. Tumor burden was measured by whole body luminescence. […] Mice were matched on day −3 and treatment began on day 0. * indicates P<0.05, ANOVA with Bonferroni's multiple comparison test correction (FIG. 11A). The total luminescent flux is shown for all individual mice at the day of matching (Day −3) and at the final imaging day (Day 11). * indicates P<0.05, ANOVA with Bonferroni's multiple comparison test correction (FIG. 11B). Images of luminescent signal in the two treatment groups at the day of matching ([…]) and the final day of imaging (day 11) is shown (FIG. 11C). Mice were injected with BrdU two hours prior to sacrifice.
(Dividing cells build labelled thymidine or BrdU into new DNA.)

In test [7] the test system is MCF7 cells. The test can be described thus: MCF7 luciferase tumors in mammary fat pad of ovariectomized nod/scid mice with DHT pellet. As to conditions: chow containing 50 mg/kg RD162′ from day 22, FIGS. 5A-D. The test is classed as in vivo.
Test [8] deals with MDA-MB-453 tumors. Nature of the test: Androgen stimulated MDA-MB-453 orthotopic tumors in NOD-SCID-IL2Rgc-/- mice (Example 10). It counts as in vivo.
Test [9] has as its system BT20 cells. Nature of the test: MTT assay in triple negative breast cancer cell line BT20. The test is classed as cell-based. As to conditions: 10 μM RD162′, FIG. 6B.
Test [10] concerns MCF7 cells. Nature of the test: MTT assay, estradiol-mediated growth in MCF7 cells. The test is classed as cell-based. As to conditions: 10 μM RD162′ with 10 nM estradiol (E2); MTT at various time points; FIG. 3. On the procedure: MCF7 cells were plated in phenol red-free medium containing charcoal stripped serum. […] An MTT assay was performed at various time points. The values were normalized to an untreated plate read 24 hours after plating to account for differences in cell density.

In test [11] the test system is MDA-MB-453 cells. Nature of the test: MTS in vitro proliferation assay, DHT-induced proliferation of MDA-MB-453 cells. The test is classed as cell-based. As to conditions: 10 μM RD162′, 10 nM DHT, FIG. 7A.
Test [12] deals with MDA-MB-453 cells. The test can be described thus: MDA-MB-453 xenograft in mammary fat pad of NOD-SCID-IL2Rgc-/- mice with DHT pellet (Example 7). It counts as in vivo.

As to `C[C@]12CCC(=O)C[C@@H]1CC[C@@H]1[C@@H]2CC[C@]2(C)[C@@H](O)CC[C@@H]12` [DHT, dihydrotestosterone, reference compound], the “growth of Hs578T cells (viable cells)” value in test [1] is listed as “does not increase the growth”.
On to `CNC(=O)c1ccc(N2C(=S)N(c3ccc(C#N)c(C(F)(F)F)c3)C(=O)C2(C)C)cc1F` [RD162′, enzalutamide], for which, in test [2], the “cell growth of MDA468” value is reported as “inhibits cell growth” and the “cell viability of MDA468” value is listed as “decreases cell viability”. The “DHT-mediated growth of BCK4 cells” value in test [3] is given as “blocks DHT-mediated growth”. Further, the “DHT-induced signal in luciferase assay (printed as proliferation)” value in test [4] is “inhibits proliferation induced by DHT in a dose dependent manner”. Besides, the “DHT-mediated growth of MCF7 cells” value in test [5] was “blocks DHT-mediated growth”. In addition, the “BrdU staining of tumor sections, P vs E2 group” value in test [6] is under 0.001. Besides, the “inhibition of estrogen stimulated tumor growth (whole body luminescence)” value in test [6] (chow containing 50 mg/kg RD162′ vs tamoxifen pellet SQ, E2 pellet, FIGS. 11A-C) is given as “as Effective as Tamoxifen”. In test [7], the “DHT-mediated tumor growth in vivo (caliper and IVIS imaging)” value was “inhibits DHT-mediated tumor growth”. Moreover, the “androgen stimulated growth of MDA-MB-453 tumors” value in [8] (RD162′ 10 mg/kg daily oral gavage from 100 mm^3, DHT pellet, FIGS. 10A-D) is “Inhibits Androgen Stimulated Growth”. Moreover, the “tumor volume, DHT vs DHT+RD162′” value in [8] (RD162′ 25 mg/kg by oral gavage started when tumors reached 400 mm^3, weekly caliper, FIG. 10A) is “no significant differences at any time point”. Moreover, in test [9], the “cell growth of BT20” value is “inhibits cell growth” and the “cell viability of BT20” value was “decreases cell viability”. Also, in test [1], the “growth of Hs578T cells (viable cells)” value is recorded as “Inhibits the Growth”. For the same molecule, the “estradiol-mediated growth of MCF7 cells” value in test [10] was “blocks estradiol-mediated growth”. For the same molecule, the “proliferation of MDA-MB-453 cells induced by DHT” value in test [11] was “inhibits proliferation”. Further, in test [12] (10 mg/kg/d and 25 mg/kg/d RD162′ by oral gavage, both doses, FIG. 7E), the “DHT induced tumor growth (tumor weight at necropsy)” value is given as “significantly inhibited DHT induced tumor growth”. Also, the “tumor growth induced by DHT (caliper tumor size)” value in test [12] (10 mg/kg/d or 25 mg/kg/d RD162′ by oral gavage, either dose, FIG. 7D) is reported as “inhibited tumor growth”.
`CC/C(=C(\c1ccccc1)c1ccc(OCCN(C)C)cc1)c1ccccc1` [Tamoxifen, tamoxifen, reference compound]: the “BrdU staining of tumor sections, P vs E2 group” value in [6] is on record as under 0.01.

These data come from patent US9517229B2, “Treatment of breast cancer” (MEDIVATION PROSTATE THERAPEUTICS, INC., priority 2011, dated 2016).
